Experimental data: paper PMC6150245 (Molecules : A Journal of Synthetic Chemistry and Natural …, 2017)
Values after ≈ are worked out from the molar mass of the structure shown. “Also recorded” adds a separate entry of the source. Like-named read-outs stand apart in the source and are kept apart here.

Key:
S. epidermidis ATCC35984 = assay type: cell-based, Staphylococcus epidermidis
Experimental: (§1) After confirming antibacterial activity, the peptides were tested against gram-positive and gram-negative multidrug-resistant bacteria, including strains of clinical origin. The peptides, p-BthTX-I, des-Lys^12/(p-BthTX-I)2, and Lys^13-(p-BthTX-I)2 were serially diluted (512–1 μM) in cation-adjusted BBL MH II broth (CAMHB; Becton, Dickson and Co., Sparks, MD, USA) as described by CLSI. Bacteria at 5.0 × 10^5 CFU/mL were added to the media and incubated for 24 h at 37 °C. […] Assays were performed in duplicates, and sterile broth was used as the negative control. To determine the minimal bactericidal concentration (MBC), 100 µL from each well of the MIC assay plates that inhibited bacterial growth were sub-cultured onto MH agar (MHA) plates. […] If the ratio of MBC/MIC was >4, the activity of the peptide was considered bacteriostatic, as described previously.

S. aureus ATCC25923 [1] = assay type: cell-based, Staphylococcus aureus; conditions: S. aureus ATCC25923, CAMHB, 24 h, 37 °C, duplicate
Experimental: as §1

S. aureus SA16 = assay type: cell-based, Staphylococcus aureus; conditions: S. aureus SA16 (MRSA)
Experimental: as §1

S. aureus SA33 = assay type: cell-based, Staphylococcus aureus; conditions: S. aureus SA33, sub-culture on MH agar, 99.9% death
Experimental: as §1

S. aureus SA88 = assay type: cell-based, Staphylococcus aureus
Experimental: as §1

S. aureus SA90 = assay type: cell-based, Staphylococcus aureus; conditions: S. aureus SA90, sub-culture on MH agar, 99.9% death
Experimental: as §1

E. faecium HSJRP8 = assay type: cell-based, Enterococcus faecium
Experimental: as §1

E. faecium VRE16 = assay type: cell-based, Enterococcus faecium
Experimental: as §1

K. pneumoniae ATCC700603 = assay type: cell-based, Klebsiella pneumoniae; conditions: K. pneumoniae ATCC700603 (SHV-18), CAMHB, 24 h, 37 °C
Experimental: as §1

[2] = tested on: K. pneumoniae ATCCBAA1705; assay type: cell-based, Klebsiella pneumoniae; conditions: K. pneumoniae ATCCBAA1705 (KPC), CAMHB, 24 h, 37 °C, duplicate
Experimental: as §1

K. pneumoniae NDM-1 = assay type: cell-based, Klebsiella pneumoniae; conditions: K. pneumoniae NDM-1, sub-culture on MH agar, 99.9% death
Experimental: as §1

E. coli ATCC35218 = assay type: cell-based, Escherichia coli
Experimental: as §1

E. coli CA4 = assay type: cell-based, Escherichia coli; conditions: E. coli CA4 (commensal), CAMHB, 24 h, 37 °C, duplicate
Experimental: as §1

Serum stability assay = assay type: in vitro ADME; conditions: 25% human male serum, 37 °C, peptide 100 µM, analytical HPLC (C18) and LC/MS, duplicate
Experimental: Crude peptides were purified by semi-preparative HPLC on a Shimadzu system (Tokyo, Japan) using a C18 reversed phase column (10 × 250 mm, Phenomenex, Torrance, CA, USA). Solvent A contained 0.045% trifluoroacetic acid (TFA) in water. Elution was achieved using a linear gradient (5–35%) of solvent B (0.036% TFA in acetonitrile) for 120 min at 5 mL/min. The purity of the peptides was determined by analytical HPLC on a Shimadzu system using a C18 column (4.6 × 150 mm, Phenomenex, Torrance, CA, USA) with a linear gradient of solvent B (5–95%) for 30 min at 1 mL/min. Liquid chromatography-mass spectrometry (LC/MS) was performed using a C18 column (2.0 × 30 mm, Shimadzu) attached to analytical HPLC and an amaZon ion trap mass spectrometer (Bruker Daltonics) using ESI. Peptides were eluted using a linear gradient of solvent B (5–95%) for 15 min at 0.2 mL/min.
Peptide stability assays were performed in diluted serum as previously described with minor modifications. First, 2 mL of 25% human male serum was centrifuged at 3000× g for 10 min; the supernatant was collected and incubated for 15 min at 37 °C. Next, peptides were added to the serum to a final concentration of 100 µM. Then, 200 µL of samples were collected at different time points during the assays, which were performed in duplicate. Analyses were performed by LC/MS and analytical HPLC, as described above.

25% human male serum = conditions: 37 °C, up to 30 h
E. coli ATCC25922 = assay: MIC, microdilution in MH broth (initial screening); assay type: cell-based, Escherichia coli; conditions: 24 h, 37 °C, resazurin, triplicate
Experimental: (§2) The minimum inhibitory concentrations (MIC) were determined following the Clinical and Laboratory Standards Institute (CLSI) recommendations. Antibacterial and antifungal activity tests were performed using the microdilution method. For initial screening, peptides were tested against C. albicans ATCC18804, E. coli ATCC25922, and S. aureus ATCC25923. Briefly, bacterial cells in MH broth (80 μL aliquots containing 1.5 × 10^7 CFU) were incubated with synthetic peptides (serial dilution from 512 to 1 μM) dissolved in Milli-Q water. After incubation for 24 h at 37 °C, the microtiter plates were analyzed visually by addition of resazurin. For the antifungal assays, the culture medium was RPMI 1640 buffered with L-glutamine (pH 7.2), 0.165 M morpholinepropanesulfonic acid (MOPS), and 2% glucose. Cell suspensions (final concentration of 1 × 10^3–2.5 × 10^3 CFU/mL) were inoculated on a microdilution plate previously prepared with serially diluted synthetic peptides (128–1 μM). The plates were incubated for 48 h at 37 °C. Each assay was performed in triplicates. Additionally, amphotericin B and fluconazole were used as the control drugs. MIC was defined as the lowest concentration of peptide at which no growth was detected.

S. aureus ATCC25923 [3] = assay: MIC, microdilution in MH broth (initial screening); assay type: cell-based, Staphylococcus aureus; conditions: 24 h, 37 °C, resazurin, triplicate
Experimental: as §2

C. albicans ATCC18804 = assay: Antifungal MIC, microdilution in RPMI 1640; assay type: cell-based, Candida albicans; conditions: C. albicans ATCC18804, RPMI 1640, 48 h, 37 °C, peptides 128-1 µM, triplicate
Experimental: as §2

human red blood cells = assay: Hemolysis assay; assay type: cell-based; conditions: 1% (v/v) human erythrocytes in Tris-saline pH 7.4, 1 h, 37 °C, absorbance 405 nm, triplicate
Experimental: Peptide hemolysis assays were performed as previously described by Castro et al.. Briefly, freshly prepared human red blood cells (RBCs) were washed three times with 0.01 M Tris-HCl (pH 7.4) containing 0.15 M NaCl (Tris-saline). A suspension of 1% (v/v) erythrocytes was made with packed RBCs resuspended in Tris-saline. Peptides were dissolved in Tris-saline at an initial concentration of […] and serially diluted in the same buffer to determine the concentration that triggered 50% hemolysis (HC50). As the positive control (100% lysis), 1% (v/v) Triton X-100 solution was used. After 1 h of incubation at 37 °C, the samples were centrifuged at 3000× g for 5 min. Then, 100 µL aliquots of the supernatant were transferred to 96-well microplates, and the absorbance was determined at 405 nm. The assay was performed in triplicates.

## CC(C)C[C@H](NC(=O)[C@H](Cc1c[nH]cn1)NC(=O)[C@H](Cc1ccc(O)cc1)NC(=O)[C@H](CCCNC(=N)N)NC(=O)[C@H](Cc1ccc(O)cc1)NC(=O)[C@H](CCCCN)NC(=O)[C@@H](N)CCCCN)C(=O)N[C@@H](CCCCN)C(=O)N1CCC[C@H]1C(=O)N[C@@H](Cc1ccccc1)C(=O)N[C@@H](CS)C(=O)N[C@@H](CCCCN)C(=O)N[C@@H](CCCCN)C(=O)O [p-BthTX-I]
S. epidermidis ATCC35984; S. epidermidis ATCC35984, CAMHB, 24 h, 37 °C, duplicate
  MIC: 128 µM (≈ 223 µg/mL)
S. epidermidis ATCC35984; S. epidermidis ATCC35984, sub-culture on MH agar, 99.9% death
  MBC: 512 µM (≈ 890 µg/mL)
S. aureus ATCC25923 [1]
  MIC: >512 µM
S. aureus SA16; CAMHB, 24 h, 37 °C
  MIC: 512 µM (≈ 890 µg/mL)
S. aureus SA16; sub-culture on MH agar, 99.9% death
  MBC: 512 µM (≈ 890 µg/mL)
S. aureus SA33
  MBC: >512 µM
S. aureus SA88; S. aureus SA88 (MRSA, daptomycin heteroresistant), CAMHB, 24 h, 37 °C, duplicate
  MIC: 512 µM (≈ 890 µg/mL)
S. aureus SA88; S. aureus SA88, sub-culture on MH agar, 99.9% death
  MBC: >512 µM
S. aureus SA90
  MBC: 512 µM (≈ 890 µg/mL)
E. faecium HSJRP8; E. faecium HSJRP8 (daptomycin resistant), CAMHB, 24 h, 37 °C, duplicate
  MIC: 32 µM (≈ 55.7 µg/mL)
E. faecium HSJRP8; E. faecium HSJRP8, sub-culture on MH agar, 99.9% death
  MBC: >512 µM
E. faecium VRE16; E. faecium VRE16 (vancomycin resistant), CAMHB, 24 h, 37 °C, duplicate
  MIC: 128 µM (≈ 223 µg/mL)
E. faecium VRE16; E. faecium VRE16, sub-culture on MH agar, 99.9% death
  MBC: >512 µM
K. pneumoniae ATCC700603
  MIC: >512 µM
[2]
  MIC: >512 µM
K. pneumoniae NDM-1
  MBC: >512 µM
E. coli ATCC35218; E. coli ATCC35218, CAMHB, 24 h, 37 °C, duplicate
  MIC: 512 µM (≈ 890 µg/mL)
E. coli ATCC35218; E. coli ATCC35218, sub-culture on MH agar, 99.9% death
  MBC: >512 µM
E. coli CA4
  MIC: >512 µM
Serum stability assay
  Incubation time after which the peptide was completely degraded in human serum: 30 min

## KKYRYHLKPFCKK [(p-BthTX-I)2]
25% human male serum
  cleaved bond: Lys12-Lys13, major, 30 min; also recorded: Cys11-Lys12, major, 30 min
  fragment found: (p-BthTX-I)2 minus one Lys residue, first_seen, 5 min; also recorded: (p-BthTX-I)2 minus two Lys residues, major, 5 min; also recorded: (p-BthTX-I)2 minus three Lys residues, 20 min

## CC(C)C[C@H](NC(=O)[C@H](Cc1c[nH]cn1)NC(=O)[C@H](Cc1ccc(O)cc1)NC(=O)[C@H](CCCNC(=N)N)NC(=O)[C@H](Cc1ccc(O)cc1)NC(=O)[C@H](CCCCN)NC(=O)[C@@H](N)CCCCN)C(=O)N[C@@H](CCCCN)C(=O)N1CCC[C@H]1C(=O)N[C@@H](Cc1ccccc1)C(=O)N[C@@H](CSSC[C@H](NC(=O)[C@H](Cc1ccccc1)NC(=O)[C@@H]1CCCN1C(=O)[C@H](CCCCN)NC(=O)[C@H](CC(C)C)NC(=O)[C@H](Cc1c[nH]cn1)NC(=O)[C@H](Cc1ccc(O)cc1)NC(=O)[C@H](CCCNC(=N)N)NC(=O)[C@H](Cc1ccc(O)cc1)NC(=O)[C@H](CCCCN)NC(=O)[C@@H](N)CCCCN)C(=O)N[C@@H](CCCCN)C(=O)O)C(=O)N[C@@H](CCCCN)C(=O)O [des-Lys^13-(p-BthTX-I)2]
E. coli ATCC25922
  MIC: 32 µM (≈ 103 µg/mL)
S. aureus ATCC25923 [3]
  MIC: 128 µM (≈ 412 µg/mL)
C. albicans ATCC18804
  MIC: >128 µM
Human red blood cells
  HC50 (peptide concentration that produced 50% hemolysis): >128 µM
